Results reported in article PMC10920834, “Synthesis, anticancer activity, and molecular docking of half-sandwich iron(II) cyclopentadienyl complexes with maleimide and phosphine or phosphite ligands” (Scientific Reports, 2024).

Tests used:
Assay type in all cases: cell-based, human
[1] = test system: HL-60 cells; experiment: Cell viability resazurin assay, HL-60 cells; details: for viability of HL-60 cells relative to control: ± SD
Protocol: (§1) The A549 (human non-small cell lung cancer) cell line was obtained from the American Type Culture Collection (ATCC) and cultured in Dulbecco's Modified Eagle Medium (DMEM) with 10% fetal bovine serum (FBS), 2 mM L-Glutamine, 25 mM HEPES and penicillin/streptomycin solution (100 U/ml and 100 µg/ml, respectively). The HL-60 (human promyelocytic leukemia) cell line was also obtained from the American Type Culture Collection (ATCC) and cultured in Iscove’s Modified Dulbecco's Medium (IMDM) with 15% fetal bovine serum (FBS), 2 mM L-Glutamine, 25 mM HEPES and penicillin/streptomycin solution (100 U/ml and 100 µg/ml, respectively). Both cell lines were cultured in flasks at 37 °C in 5% CO2 and sub-cultured every 2–3 days to maintain exponential growth.
(§2) Firstly, resazurin salt powder was dissolved in sterile 1 × PBS. Cells were then seeded on the 96-well plates in the count of 1 × 10^4 in the case of HL-60 cells and of 5 × 10^4 for PBM cells and of 5 × 10^3 for A549 cells per well. A549 cells were seeded 24 h prior to treatment with the complexes to allow cell adherence to 96-well plate. Iron(II) complexes were added to wells to obtain final concentrations of 0.5, 1, 2.5, 5, 10, 25, 50, 100 and 250 μM. Subsequently, plates were incubated at 37 °C in 5% CO2 for 2 h and 24 h. After that 10 μl of resazurin salt was added to each well and plates again were incubated in 37 °C in 5% CO2 for 2 h. Finally, fluorescence was measured with microplate reader Synergy HT (Bio-Tek Instruments, USA) using an excitation wavelength of 530/25 and an emission wavelength of 590/35 nm. The effects of iron(II) complexes were calculated as the percentage of control fluorescence. IC50 (half maximal inhibitory concentration) values were calculated using a website algorithm (https://www.aatbio.com/tools/ic50-calculator). All assays were performed in octuplicate.

[2] = test system: A549 cells; experiment: Cell viability resazurin assay, A549 cells; details: for viability of A549 cells relative to control: ± SD
Protocol: as §1, §2

[3] = test system: HL-60 cells; experiment: Alkaline comet assay, HL-60 cells; details: 2 h incubation, 1-50 μM tested
Protocol: Selected iron(II) complexes were added to the suspension of the cells to give final concentrations of 1, 5, 10, 25 and 50 μM. HL-60 and A549 cells were incubated with the complexes for 2 h at 37 °C. The comet assay was performed under alkaline conditions according to the procedure of Tokarz et al.[45]. […] Next, the cells were lysed for 1 h at 4 °C in a buffer containing 2.5 M NaCl, 0.1 M EDTA, 10 mM Tris, 1% Triton X-100, pH 10. Following the lysis, the slides were placed in an electrophoresis unit. DNA was allowed to unwind for 20 min in the solution containing 300 mM NaOH and 1 mM EDTA, pH > 13. […] After separation, the slides were washed in water, drained, stained with 2 μg/ml DAPI and covered with cover slips. As a prevention from additional DNA damage, the procedure described above was conducted under limited light or in the dark. Each experiment included the positive control—cells incubated with H2O2 at 20 µM for 15 min on ice (data not shown).
The comets obtained after single cell gel electrophoresis were analysed in the following manner. […] Hundred images of singular comets were randomly selected from each sample and the mean value of DNA in comet tail was taken as an index of DNA damage (expressed in percent).

[4] = test system: PBM cells; experiment: Cell viability resazurin assay, PBM cells; details: for viability of PBM cells relative to control: ± SD
Text: Peripheral blood mononuclear (PBM) cells were isolated from a leukocyte-buffy coat collected from the blood of healthy, non-smoking donors at the Blood Bank in Lodz, Poland. The study protocol received approval from the Committee for Research on Human Subjects of the University of Lodz (17/KBBN-UŁ/III/2019). The initial step of isolation process involved mixing buffy coats with PBS in a 1:1 ratio. Subsequently, the mixture was centrifuged using a density gradient of Lymphosep (Cytogen, Zgierz, Poland) at 2200 RPM for 20 min, employing the lowest values for acceleration and deceleration. PBM cells were collected and washed three times by centrifugation with 1 × PBS. Following isolation, the cells were suspended in RPMI 1640 medium.
as §2

CCOP(OCC)OCC.O=C1C=CC(=O)[N-]1.[C-]#[O+].[Fe+2].c1cc[cH-]c1 [3a]
viability of HL-60 cells relative to control ([1]; 2 h incubation, 0.5 µM): 103.48 ± 2.11%
viability of HL-60 cells relative to control ([1]; 2 h incubation, 1 µM): 105.44 ± 1%
viability of HL-60 cells relative to control ([1]; 2 h incubation, 2.5 µM): 102.35 ± 0.54%
viability of HL-60 cells relative to control ([1]; 2 h incubation, 5 µM): 100.13 ± 1.86%
viability of HL-60 cells relative to control ([1]; 2 h incubation, 10 µM): 101.73 ± 3.47%
viability of HL-60 cells relative to control ([1]; 2 h incubation, 25 µM): 97.68 ± 2.4%
viability of HL-60 cells relative to control ([1]; 2 h incubation, 50 µM): 93.65 ± 1.73%
viability of HL-60 cells relative to control ([1]; 2 h incubation, 100 µM): 87.54 ± 2.53%
viability of HL-60 cells relative to control ([1]; 2 h incubation, 250 µM): 30.8 ± 1.55%
IC50 ([1]; 24 h incubation): 15.9 µM
viability of HL-60 cells relative to control ([1]; 24 h incubation, 0.5 µM): 107.33 ± 1.24%
viability of HL-60 cells relative to control ([1]; 24 h incubation, 1 µM): 109.38 ± 4%
viability of HL-60 cells relative to control ([1]; 24 h incubation, 2.5 µM): 112.36 ± 1.5%
viability of HL-60 cells relative to control ([1]; 24 h incubation, 5 µM): 106.89 ± 3.43%
viability of HL-60 cells relative to control ([1]; 24 h incubation, 10 µM): 89 ± 3.39%
viability of HL-60 cells relative to control ([1]; 24 h incubation, 25 µM): 46.28 ± 0.82%
viability of HL-60 cells relative to control ([1]; 24 h incubation, 50 µM): 38.62 ± 0.52%
viability of HL-60 cells relative to control ([1]; 24 h incubation, 100 µM): 39.69 ± 0.83%
viability of HL-60 cells relative to control ([1]; 24 h incubation, 250 µM): 17.5 ± 0.5%
viability of A549 cells relative to control ([2]; 2 h incubation, 0.5 µM): 100.11 ± 13.46%
viability of A549 cells relative to control ([2]; 2 h incubation, 1 µM): 89.02 ± 8.33%
viability of A549 cells relative to control ([2]; 2 h incubation, 2.5 µM): 86.36 ± 7.43%
viability of A549 cells relative to control ([2]; 2 h incubation, 5 µM): 85.49 ± 7.39%
viability of A549 cells relative to control ([2]; 2 h incubation, 10 µM): 83.61 ± 12.73%
viability of A549 cells relative to control ([2]; 2 h incubation, 25 µM): 82.29 ± 5.9%
viability of A549 cells relative to control ([2]; 2 h incubation, 50 µM): 82.69 ± 3.89%
viability of A549 cells relative to control ([2]; 2 h incubation, 100 µM): 74.97 ± 6.81%
viability of A549 cells relative to control ([2]; 2 h incubation, 250 µM): 68.50 ± 8.56%
IC50 ([2]; 24 h incubation): > 250 µM
cytotoxicity against A549 cells, in words ([2]; 24 h incubation): did not show cytotoxicity
viability of A549 cells relative to control ([2]; 24 h incubation, 0.5 µM): 80.91 ± 12.58%
viability of A549 cells relative to control ([2]; 24 h incubation, 1 µM): 70.97 ± 10.92%
viability of A549 cells relative to control ([2]; 24 h incubation, 2.5 µM): 68.70 ± 18.12%
viability of A549 cells relative to control ([2]; 24 h incubation, 5 µM): 68.55 ± 13.94%
viability of A549 cells relative to control ([2]; 24 h incubation, 10 µM): 71.63 ± 17.67%
viability of A549 cells relative to control ([2]; 24 h incubation, 25 µM): 131.92 ± 19.26%
viability of A549 cells relative to control ([2]; 24 h incubation, 50 µM): 131.87 ± 25.64%
viability of A549 cells relative to control ([2]; 24 h incubation, 100 µM): 153.54 ± 19.26%
viability of A549 cells relative to control ([2]; 24 h incubation, 250 µM): 95.62 ± 13.21%
A549 cell viability, increase with increasing concentrations to ([2]; 24 h incubation, concentration not given): 153%
DNA damage in HL-60 cells (alkaline comet assay), in words [3]: DNA damage at the concentrations of 10, 25 and 50 μM
viability of PBM cells relative to control ([4]; 2 h incubation, 0.5 µM): 83.62 ± 1.79%
viability of PBM cells relative to control ([4]; 2 h incubation, 1 µM): 82.59 ± 3.38%
viability of PBM cells relative to control ([4]; 2 h incubation, 2.5 µM): 83.52 ± 1.8%
viability of PBM cells relative to control ([4]; 2 h incubation, 5 µM): 86.67 ± 4.18%
viability of PBM cells relative to control ([4]; 2 h incubation, 10 µM): 89.89 ± 2.91%
viability of PBM cells relative to control ([4]; 2 h incubation, 25 µM): 98.19 ± 4.2%
viability of PBM cells relative to control ([4]; 2 h incubation, 50 µM): 98.5 ± 3.37%
viability of PBM cells relative to control ([4]; 2 h incubation, 100 µM): 97.79 ± 4.89%
viability of PBM cells relative to control ([4]; 2 h incubation, 250 µM): 98.17 ± 2.87%
IC50 ([4]; 24 h incubation): > 250 µM
viability of PBM cells relative to control ([4]; 24 h incubation, 0.5 µM): 102.49 ± 0.39%
viability of PBM cells relative to control ([4]; 24 h incubation, 1 µM): 104.14 ± 1.97%
viability of PBM cells relative to control ([4]; 24 h incubation, 2.5 µM): 104.31 ± 0.56%
viability of PBM cells relative to control ([4]; 24 h incubation, 5 µM): 102.43 ± 1.43%
viability of PBM cells relative to control ([4]; 24 h incubation, 10 µM): 99.21 ± 0.78%
viability of PBM cells relative to control ([4]; 24 h incubation, 25 µM): 98.34 ± 0.97%
viability of PBM cells relative to control ([4]; 24 h incubation, 50 µM): 98.58 ± 2.84%
viability of PBM cells relative to control ([4]; 24 h incubation, 100 µM): 102.37 ± 3.3%
viability of PBM cells relative to control ([4]; 24 h incubation, 250 µM): 94.72 ± 3.88%
